Reference: the supplement of paper PMC10307832

These cell lines were tested with COc1cccc2cc(-c3nc([C@H]4CC[C@H](C(=O)O)CC4)n4ncnc(N)c34)[nH]c12 [OSI-027] + CC(=O)Nc1cccc(-n2c(=O)n(C3CC3)c(=O)c3c(Nc4ccc(I)cc4F)n(C)c(=O)c(C)c32)c1 [Trametinib] (partner 0.02 µM) (assay: relative viability (nuclei count vs DMSO), 5 days (fraction); higher = more cells survive). Details: first compound 1 µM.
How it was run: (§1)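 Medians of duplicate plates are given as relative viability. That measure is the nuclei count in treated wells divided by the count in vehicle wells. Counts were taken on 4× images of lung cancer cell lines in 1536-well plates, 5 days after pin-tool dosing the day after seeding with one drug alone or a fixed anchor-drug dose plus five library-drug doses (not always all listed) in √10 steps.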

For HCC-78, which relative viability is on record?
The relative viability was 0.35.

These cell lines were tested with Cc1nc(NC(=O)N2CCC[C@H]2C(N)=O)sc1-c1ccnc(C(C)(C)C(F)(F)F)c1 [Alpelisib] + CC(=O)c1c(C)c2cnc(Nc3ccc(N4CCNCC4)cn3)nc2n(C2CCCC2)c1=O [Palbociclib] (partner 0.5 µM) in the same assay as above. Details: first compound 0.04 µM.
How it was run: as §1

NCI-H23 was tested. Which relative viability did it give?
Its relative viability is 0.59.

With HCC-827 as the cell line, how does the relative viability read?
Its relative viability is 0.509.

Which relative viability does the source give for NCI-H2347 here?
The relative viability was 0.417.

How did the relative viability turn out when LXF-289 was run?
The relative viability was 0.55.

NCI-H1666 was tested. Which relative viability did it give?
Its relative viability is 0.681.

For RERF-LC-KJ, which relative viability is on record?
The relative viability was 1.1.

For NCI-H650, which relative viability is on record?
Its relative viability is 0.315.

How did the relative viability turn out when NCI-H322M was run?
Its relative viability is 0.47.

Which relative viability does the source give for 201T here?
The relative viability was 0.374.

For SW 900, which relative viability is on record?
The relative viability was 0.536.

For SK-MES-1, which relative viability is on record?
Its relative viability is 0.361.

How did the relative viability turn out when NCI-H441 was run?
Its relative viability is 0.225.

Which relative viability does the source give for HCC-78 here?
Its relative viability is 0.521.

Same assay, conditions: first compound 0.1265 µM

How did the relative viability turn out when NCI-H23 was run?
Its relative viability is 0.434.

How did the relative viability turn out when HCC-827 was run?
The relative viability was 0.489.

NCI-H2347 was tested. Which relative viability did it give?
Its relative viability is 0.45.

How did the relative viability turn out when LXF-289 was run?
The relative viability was 0.562.

For NCI-H1666, which relative viability is on record?
Its relative viability is 0.606.

For RERF-LC-KJ, which relative viability is on record?
Its relative viability is 1.03.

How did the relative viability turn out when NCI-H650 was run?
The relative viability was 0.345.

With NCI-H322M as the cell line, how does the relative viability read?
The relative viability was 0.493.

How did the relative viability turn out when 201T was run?
The relative viability was 0.335.

How did the relative viability turn out when SK-MES-1 was run?
The relative viability was 0.307.

NCI-H441 was tested. Which relative viability did it give?
Its relative viability is 0.166.

HCC-78 was tested. Which relative viability did it give?
Its relative viability is 0.545.

Same assay, conditions: first compound 0.4 µM

Which relative viability does the source give for NCI-H23 here?
The relative viability was 0.461.

With HCC-827 as the cell line, how does the relative viability read?
The relative viability was 0.485.

NCI-H2347 was tested. Which relative viability did it give?
Its relative viability is 0.407.

How did the relative viability turn out when LXF-289 was run?
The relative viability was 0.653.

Which relative viability does the source give for NCI-H1666 here?
Its relative viability is 0.693.

Which relative viability does the source give for RERF-LC-KJ here?
Its relative viability is 1.16.

NCI-H650 was tested. Which relative viability did it give?
The relative viability was 0.316.

How did the relative viability turn out when NCI-H322M was run?
Its relative viability is 0.453.

201T was tested. Which relative viability did it give?
Its relative viability is 0.357.

SW 900 was tested. Which relative viability did it give?
Its relative viability is 0.706.

With SK-MES-1 as the cell line, how does the relative viability read?
The relative viability was 0.313.

How did the relative viability turn out when NCI-H441 was run?
Its relative viability is 0.182.

How did the relative viability turn out when HCC-78 was run?
Its relative viability is 0.479.

Same assay, conditions: first compound 1.265 µM

NCI-H23 was tested. Which relative viability did it give?
The relative viability was 0.305.

With HCC-827 as the cell line, how does the relative viability read?
Its relative viability is 0.41.

For NCI-H2347, which relative viability is on record?
The relative viability was 0.474.

For LXF-289, which relative viability is on record?
Its relative viability is 0.534.

How did the relative viability turn out when NCI-H1666 was run?
Its relative viability is 0.571.

Which relative viability does the source give for RERF-LC-KJ here?
The relative viability was 0.759.

How did the relative viability turn out when NCI-H650 was run?
The relative viability was 0.263.

Which relative viability does the source give for NCI-H322M here?
Its relative viability is 0.389.

For 201T, which relative viability is on record?
The relative viability was 0.315.

Which relative viability does the source give for SW 900 here?
Its relative viability is 0.483.

How did the relative viability turn out when SK-MES-1 was run?
The relative viability was 0.254.

With NCI-H441 as the cell line, how does the relative viability read?
Its relative viability is 0.14.

Which relative viability does the source give for HCC-78 here?
The relative viability was 0.459.

Same assay, conditions: first compound 4 µM

With NCI-H23 as the cell line, how does the relative viability read?
The relative viability was 0.313.

With HCC-827 as the cell line, how does the relative viability read?
Its relative viability is 0.386.

Which relative viability does the source give for NCI-H2347 here?
Its relative viability is 0.423.

With LXF-289 as the cell line, how does the relative viability read?
The relative viability was 0.604.

Which relative viability does the source give for NCI-H1666 here?
Its relative viability is 0.493.

With RERF-LC-KJ as the cell line, how does the relative viability read?
The relative viability was 0.928.

Which relative viability does the source give for NCI-H650 here?
Its relative viability is 0.265.

For NCI-H322M, which relative viability is on record?
The relative viability was 0.309.

For 201T, which relative viability is on record?
Its relative viability is 0.29.

Which relative viability does the source give for SW 900 here?
The relative viability was 0.49.

For SK-MES-1, which relative viability is on record?
Its relative viability is 0.3.

Which relative viability does the source give for NCI-H441 here?
Its relative viability is 0.111.
